Key:
[1] = biological target: T1, LRRK2-pSer935 (Homo sapiens, UniProt Q5S007); test: Western Blot, cultured immune stimulated human PBMCs; type: cell-based; conditions: 100 nM, 1hr and 24hrs, n = 10 donors
T1 construct: human primary cells expressing endogenous levels of LRRK2; endogenous in cells; host or cells: human PBMCs from healthy donors
Method: PBMC were isolated from fresh blood collected within a maximal time of 4 hours after blood collection. Leucosep tubes (Greiner 227290) was added 15 ml Ficoll (GE Healthcare 17-440-03) and spun 30 s at 1000 × g. Blood was diluted 1:1 using D-PBS 1X (Gibco 14190), transfered to the Leucosep and centrifuged at 800 g for 15 min without brake. The upper layer corresponding to the diluted plasma was removed and the PBMC layer collected using a pipette or by pouring into a clean BD Falcon 50 ml tube. Cells were re-suspended and washed four times with 10 ml of D-PBS 1X (Gibco 14190) followed by centrifugation at 250 g for 10 min with brake at room temperature. The supernatant was discarded and the cells re-suspended in Complete medium equilibrated to 37 °C. The number of dead and living cells were counted on a Nucleocounter and used to calculate percent viability. […]
HEK293 cells were plated at a density of 1 × 10^6 cells/well in 6-well plates pre-coated for 1 hr at 37 °C with poly-L-lysin. […] The proteins were visually detected by infrared imaging using Odyssey CLx (LI-COR, Nebraska, US). Membranes were scanned and band intensities were quantified using the Image Studio version 3.1.4 (LI-COR, Nebraska).

[2] = test system: Rab12-pSer106; test: as above; type: cell-based; conditions: 100 nM, 1hr or 24 hrs
Method: Cell pellets were resuspended and solubilized in 100 µL lysis buffer (50 mM Tris hydrochloride, 1 mM magnesium chloride, 1% Triton, 0.1% sodium dodecyl sulfate (SDS), pH 8.0) on ice for 20 minutes and then centrifuged at 20,000 g for 30 minutes at 4 °C. […] The proteins were visually detected by infrared imaging using Odyssey CLx (LI-COR, Nebraska, US). Membranes were scanned and band intensities were quantified using the Image Studio version 3.1.4 (LI-COR, Nebraska).

[3] = test system: kinases other than LRRK2 (off-target kinases); test: KiNativ broad kinase profiling in human PBMCs; type: binding; conditions: 100 nM
Method: (§1) Compounds were shipped to ActivX Technologies (San Diego, US) where LRRK2 target engagement and broad kinase profiling was performed using KiNativ™ procedures. Live cell treatment of human peripheral blood mononuclear cells (PBMCs) at two compound concentrations (1 µM and 0.1 µM) were used to evaluate and compare in vitro target engagement and kinase selectivity, respectively (see Supplementary File 1).

[4] = test system: T2, AKT1; test: KiNativ profiling in human PBMCs; type: binding; conditions: ATP Loop
T2 construct: purchased ActivX Technologies (KiNativ)
Method: as §1

[5] = test system: T3, CDK2; test: KiNativ profiling in human PBMCs; type: binding
T3 construct: purchased ActivX Technologies (KiNativ)
Method: as §1

[6] = test system: T4, CSK; test: KiNativ profiling in human PBMCs; type: binding
T4 construct: purchased ActivX Technologies (KiNativ)
Method: as §1

[7] = test system: CaMK2a,CaMK2b,CaMK2d,CaMK2g; test: KiNativ profiling in human PBMCs; type: binding; conditions: Lys2
Method: as §1

[8] = test system: T5, CaMK2g; test: KiNativ profiling in human PBMCs; type: binding; conditions: Lys1
T5 construct: purchased ActivX Technologies (KiNativ)
Method: as §1

[9] = test system: T6, Erk2; test: KiNativ profiling in human PBMCs; type: binding; conditions: Lys2
T6 construct: purchased ActivX Technologies (KiNativ)
Method: as §1

[10] = test system: T7, KSR1; test: KiNativ profiling in human PBMCs; type: binding; conditions: Activation Loop
T7 construct: purchased ActivX Technologies (KiNativ)
Method: as §1

[11] = test system: T8, PIK3CB; test: KiNativ profiling in human PBMCs; type: binding; conditions: ATP
T8 construct: purchased ActivX Technologies (KiNativ)
Method: as §1

[12] = test system: T9, RSK1 domain2; test: KiNativ profiling in human PBMCs; type: binding; conditions: Lys2
T9 construct: RSK1 domain2; purchased ActivX Technologies (KiNativ)
Method: as §1

[13] = test system: T10, ZAK; test: KiNativ profiling in human PBMCs; type: binding; conditions: Lys1
T10 construct: purchased ActivX Technologies (KiNativ)
Method: as §1

[14] = test system: T11, p70S6K; test: KiNativ profiling in human PBMCs; type: binding; conditions: Lys2
T11 construct: purchased ActivX Technologies (KiNativ)
Method: as §1

T1 sequence (Q5S007 whole entry): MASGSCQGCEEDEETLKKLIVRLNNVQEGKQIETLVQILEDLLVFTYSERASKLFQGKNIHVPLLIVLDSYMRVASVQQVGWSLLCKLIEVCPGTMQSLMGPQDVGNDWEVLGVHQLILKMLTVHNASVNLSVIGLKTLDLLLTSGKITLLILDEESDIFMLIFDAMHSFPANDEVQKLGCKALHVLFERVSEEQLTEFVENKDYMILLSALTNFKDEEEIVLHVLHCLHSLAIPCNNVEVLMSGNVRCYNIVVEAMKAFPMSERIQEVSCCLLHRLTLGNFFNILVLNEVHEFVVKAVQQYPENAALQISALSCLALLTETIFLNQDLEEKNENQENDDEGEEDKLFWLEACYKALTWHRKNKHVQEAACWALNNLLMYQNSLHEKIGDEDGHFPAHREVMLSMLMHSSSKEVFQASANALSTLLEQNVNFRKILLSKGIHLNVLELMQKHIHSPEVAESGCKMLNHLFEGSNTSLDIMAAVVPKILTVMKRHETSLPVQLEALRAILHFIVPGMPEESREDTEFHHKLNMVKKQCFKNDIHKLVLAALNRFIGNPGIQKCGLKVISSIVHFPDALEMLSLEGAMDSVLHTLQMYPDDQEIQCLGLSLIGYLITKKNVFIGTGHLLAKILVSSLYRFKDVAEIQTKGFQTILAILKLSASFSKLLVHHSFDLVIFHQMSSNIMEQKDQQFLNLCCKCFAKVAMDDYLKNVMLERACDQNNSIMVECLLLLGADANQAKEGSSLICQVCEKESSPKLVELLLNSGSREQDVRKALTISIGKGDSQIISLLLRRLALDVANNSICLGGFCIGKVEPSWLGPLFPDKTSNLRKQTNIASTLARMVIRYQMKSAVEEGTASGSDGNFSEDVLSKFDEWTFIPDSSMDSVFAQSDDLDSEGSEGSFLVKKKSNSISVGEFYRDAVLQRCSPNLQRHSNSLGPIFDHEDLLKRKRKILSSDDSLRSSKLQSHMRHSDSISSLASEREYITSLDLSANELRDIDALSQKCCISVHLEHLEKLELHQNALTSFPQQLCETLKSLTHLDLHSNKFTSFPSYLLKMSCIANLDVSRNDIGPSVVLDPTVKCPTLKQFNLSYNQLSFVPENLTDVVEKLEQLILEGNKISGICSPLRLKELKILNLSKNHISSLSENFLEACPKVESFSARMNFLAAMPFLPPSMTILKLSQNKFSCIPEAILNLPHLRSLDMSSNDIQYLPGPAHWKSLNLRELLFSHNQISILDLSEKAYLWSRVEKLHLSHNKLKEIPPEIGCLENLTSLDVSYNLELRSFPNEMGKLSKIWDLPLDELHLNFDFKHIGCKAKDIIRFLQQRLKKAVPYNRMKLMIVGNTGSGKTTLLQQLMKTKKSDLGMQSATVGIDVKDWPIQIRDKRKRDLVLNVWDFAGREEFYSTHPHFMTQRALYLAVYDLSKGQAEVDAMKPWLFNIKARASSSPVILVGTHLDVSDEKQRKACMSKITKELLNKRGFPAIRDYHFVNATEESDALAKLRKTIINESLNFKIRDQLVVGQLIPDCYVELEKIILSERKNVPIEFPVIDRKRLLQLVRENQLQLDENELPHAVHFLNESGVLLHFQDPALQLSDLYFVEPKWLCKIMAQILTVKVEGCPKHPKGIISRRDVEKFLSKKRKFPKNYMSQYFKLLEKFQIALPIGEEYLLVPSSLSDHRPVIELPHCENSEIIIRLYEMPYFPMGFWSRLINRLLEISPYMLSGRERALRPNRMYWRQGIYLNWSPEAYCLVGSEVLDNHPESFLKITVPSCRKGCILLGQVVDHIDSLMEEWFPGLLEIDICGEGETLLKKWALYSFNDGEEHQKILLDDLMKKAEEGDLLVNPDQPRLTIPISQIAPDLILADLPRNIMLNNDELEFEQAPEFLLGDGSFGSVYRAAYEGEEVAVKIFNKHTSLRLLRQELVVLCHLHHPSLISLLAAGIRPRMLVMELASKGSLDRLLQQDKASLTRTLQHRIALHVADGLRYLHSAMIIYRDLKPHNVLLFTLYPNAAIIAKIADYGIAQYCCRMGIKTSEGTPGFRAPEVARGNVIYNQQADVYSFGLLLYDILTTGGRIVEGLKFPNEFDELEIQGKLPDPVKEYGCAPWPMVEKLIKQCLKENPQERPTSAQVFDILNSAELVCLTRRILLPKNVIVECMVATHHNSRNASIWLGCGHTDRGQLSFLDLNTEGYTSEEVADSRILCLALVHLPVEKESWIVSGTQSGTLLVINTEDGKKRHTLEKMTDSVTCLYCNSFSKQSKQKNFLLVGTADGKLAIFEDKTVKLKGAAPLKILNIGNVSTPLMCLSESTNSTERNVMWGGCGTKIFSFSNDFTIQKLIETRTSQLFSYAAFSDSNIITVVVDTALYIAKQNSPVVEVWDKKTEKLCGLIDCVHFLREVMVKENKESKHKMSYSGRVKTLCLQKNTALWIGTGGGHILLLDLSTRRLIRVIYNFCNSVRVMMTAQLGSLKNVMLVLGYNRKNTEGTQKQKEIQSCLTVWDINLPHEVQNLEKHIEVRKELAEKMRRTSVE

Cc1cccc(-c2cc(Nc3ccn(C)n3)nc3[nH]cc(C#N)c23)c1 [Lu AF58786]
LRRK2 kinase inhibition (LRRK2-pSer935/total LRRK2) [1]: confirmed
inhibition of Rab12 phosphorylation (Rab12-pSer106) [2]: not able to significant inhibit
inhibition of other kinases ([3]; human PBMCs): no inhibition
Inhibition ([4]; 0.1µM): 7.0%
Inhibition ([4]; 1µM): -7.5%
Inhibition ([5]; 0.1µM, Lys1): 5.0%
Inhibition ([5]; 0.1µM, Lys2): 7.1%
Inhibition ([5]; 1µM, Lys1): 9.2%
Inhibition ([5]; 1µM, Lys2): 5.2%
Inhibition ([6]; 0.1µM, Activation Loop): 7.6%
Inhibition ([6]; 0.1µM, Lys1): 16.0%
Inhibition ([6]; 1µM, Activation Loop): -1.7%
Inhibition ([6]; 1µM, Lys1): 6.8%
Inhibition ([7]; 0.1µM): -12.1%
Inhibition ([7]; 1µM): -1.0%
Inhibition ([8]; 0.1µM): 3.3%
Inhibition ([8]; 1µM): -7.2%
Inhibition ([9]; 0.1µM): 2.4%
Inhibition ([9]; 1µM): 1.7%
Inhibition ([10]; 0.1µM): -19.0%
Inhibition ([11]; 0.1µM): 14.0%
Inhibition ([11]; 1µM): -22.3%
Inhibition ([12]; 0.1µM): 11.6%
Inhibition ([12]; 1µM): 5.6%
Inhibition ([13]; 0.1µM): 18.8%
Inhibition ([13]; 1µM): 11.6%
Inhibition ([14]; 0.1µM): -7.6%
Inhibition ([14]; 1µM): -5.7%

Cn1cc(-c2c[nH]c3ncnc(N4CCOCC4)c23)cc1C#N [PFE-360]
LRRK2 kinase inhibition (LRRK2-pSer935/total LRRK2) [1]: confirmed
inhibition of Rab12 phosphorylation (Rab12-pSer106) [2]: not able to significant inhibit
inhibition of off-target kinases ([3]; acutely isolated human PBMCs): ≤ 60%
% Inhibition ([4]; 0.1µM): -6.3%
% Inhibition ([4]; 1µM): -3.2%
% Inhibition ([5]; 0.1µM, Lys1): -5.8%
% Inhibition ([5]; 0.1µM, Lys2): 4.2%
% Inhibition ([5]; 1µM, Lys1): -5.5%
% Inhibition ([5]; 1µM, Lys2): -2.9%
% Inhibition ([6]; 0.1µM, Activation Loop): -3.4%
% Inhibition ([6]; 0.1µM, Lys1): 0.7%
% Inhibition ([6]; 1µM, Activation Loop): -10.5%
% Inhibition ([6]; 1µM, Lys1): -10.4%
% Inhibition ([7]; 0.1µM): 6.1%
% Inhibition ([7]; 1µM): 1.2%
% Inhibition ([8]; 0.1µM): 11.1%
% Inhibition ([8]; 1µM): 9.2%
% Inhibition ([9]; 0.1µM): 9.1%
% Inhibition ([9]; 1µM): 5.3%
% Inhibition ([10]; 0.1µM): 6.8%
% Inhibition ([10]; 1µM): 8.2%
% Inhibition ([11]; 0.1µM): -27.2%
% Inhibition ([11]; 1µM): 12.3%
% Inhibition ([12]; 0.1µM): -5.4%
% Inhibition ([12]; 1µM): -11.2%
% Inhibition ([13]; 0.1µM): -12.2%
% Inhibition ([13]; 1µM): -10.2%
% Inhibition ([14]; 0.1µM): -16.9%
% Inhibition ([14]; 1µM): 8.5%

Source: PMC5578959, “Selective LRRK2 kinase inhibition reduces phosphorylation of endogenous Rab10 and Rab12 in human peripheral mononuclear blood cells” (Scientific Reports, 2017)
